Laboratory results taken from US11078202B2, “β-lactamase inhibitor and use thereof” (priority 2018, dated 2021).
Where a name gives a salt, the structure may show the parent alone.

Tests used:
Type in all cases: cell-based
[1] = test system: Klebsiella pneumoniae XNWB 0001; experiment: MIC assay of test compounds combined with imipenem (4 μg/mL); conditions: imipenem 4 μg/mL fixed
Method in brief: (§1)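 Checkerboard-free combination MIC: test compound titrated against a constant partner antibiotic in cation-adjusted Mueller-Hinton broth. Inocula prepared from TSA colonies at OD600 0.1-0.15, diluted 300×. Plates shaken, incubated under normal atmosphere at 35±2 °C for 16-20 h; endpoints taken following CLSI.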

[2] = test system: Acinetobacter baumannii XNWB 0007; experiment: as above; conditions: imipenem 4 μg/mL fixed
Method in brief: as §1

[3] = test system: Klebsiella pneumoniae XNWB 0002; experiment: as above; conditions: imipenem 4 μg/mL fixed
Method in brief: as §1

[4] = test system: Klebsiella pneumoniae XNWB 0006; experiment: as above; conditions: imipenem 4 μg/mL fixed
Method in brief: as §1

[5] = test system: Klebsiella pneumoniae XNWB 0003; experiment: as above; conditions: imipenem 4 μg/mL fixed
Method in brief: as §1

[6] = test system: Pseudomonas aeruginosa XNWB 0008; experiment: as above; conditions: imipenem 4 μg/mL fixed
Method in brief: as §1

[7] = test system: Klebsiella pneumoniae XNWB 0005; experiment: as above; conditions: imipenem 4 μg/mL fixed
Method in brief: as §1

[8] = test system: Klebsiella pneumoniae XNWB 0004; experiment: as above; conditions: imipenem 4 μg/mL fixed
Method in brief: as §1

[9] = test system: Klebsiella pneumoniae XNWB 0001; experiment: MIC assay of test compounds combined with ceftazidime (8 μg/mL); conditions: ceftazidime 8 μg/mL fixed
Method in brief: as §1

[10] = test system: Acinetobacter baumannii XNWB 0007; experiment: as above; conditions: ceftazidime 8 μg/mL fixed
Method in brief: as §1

[11] = test system: Klebsiella pneumoniae XNWB 0002; experiment: as above; conditions: ceftazidime 8 μg/mL fixed
Method in brief: as §1

[12] = test system: Klebsiella pneumoniae XNWB 0006; experiment: as above; conditions: ceftazidime 8 μg/mL fixed
Method in brief: as §1

[13] = test system: Klebsiella pneumoniae XNWB 0003; experiment: as above; conditions: ceftazidime 8 μg/mL fixed
Method in brief: as §1

[14] = test system: Pseudomonas aeruginosa XNWB 0008; experiment: as above; conditions: ceftazidime 8 μg/mL fixed
Method in brief: as §1

[15] = test system: Klebsiella pneumoniae XNWB 0005; experiment: as above; conditions: ceftazidime 8 μg/mL fixed
Method in brief: as §1

[16] = test system: Klebsiella pneumoniae XNWB 0004; experiment: as above; conditions: ceftazidime 8 μg/mL fixed
Method in brief: as §1

SMILES	The minimum concentration of test compounds combined with imipenem (4 μg/mL) for bacteriostasis [1]	The minimum concentration of test compounds combined with imipenem (4 μg/mL) for bacteriostasis [2]	The minimum concentration of test compounds combined with imipenem (4 μg/mL) for bacteriostasis [3]	The minimum concentration of test compounds combined with imipenem (4 μg/mL) for bacteriostasis [4]	The minimum concentration of test compounds combined with imipenem (4 μg/mL) for bacteriostasis [5]	The minimum concentration of test compounds combined with imipenem (4 μg/mL) for bacteriostasis [6]	The minimum concentration of test compounds combined with imipenem (4 μg/mL) for bacteriostasis [7]	The minimum concentration of test compounds combined with imipenem (4 μg/mL) for bacteriostasis [8]	The minimum concentration of test compounds combined with ceftazidime (8 μg/mL) for bacteriostasis [9]	The minimum concentration of test compounds combined with ceftazidime (8 μg/mL) for bacteriostasis [10]	The minimum concentration of test compounds combined with ceftazidime (8 μg/mL) for bacteriostasis [11]	The minimum concentration of test compounds combined with ceftazidime (8 μg/mL) for bacteriostasis [12]	The minimum concentration of test compounds combined with ceftazidime (8 μg/mL) for bacteriostasis [13]	The minimum concentration of test compounds combined with ceftazidime (8 μg/mL) for bacteriostasis [14]	The minimum concentration of test compounds combined with ceftazidime (8 μg/mL) for bacteriostasis [15]	The minimum concentration of test compounds combined with ceftazidime (8 μg/mL) for bacteriostasis [16]
CNCCc1cc([C@@H]2CC3(CC3)[C@@H]3CN2C(=O)N3OS(=O)(=O)O)no1 [Example 42, (1R,4S)-4-(5-(2-(methylamino)ethyl)isoxazol-3-yl)-6-oxo-5,7-diazaspiro[bicycle[3.2.1]octane-2,1′-cyclopropan]-7-yl sulfate]	A (A: <8 μg/mL)	C (C: 16-128 μg/mL)	A (A: <8 μg/mL)	A (A: <8 μg/mL)	A (A: <8 μg/mL)	B (B: 8-16 μg/mL)	A (A: <8 μg/mL)	A (A: <8 μg/mL)	A (A: <8 μg/mL)	C (C: 16-128 μg/mL)	A (A: <8 μg/mL)	A (A: <8 μg/mL)	A (A: <8 μg/mL)	C (C: 16-128 μg/mL)	A (A: <8 μg/mL)	B (B: 8-16 μg/mL)
N=C1NC[C@@H](c2nnc([C@@H]3CC4(CC4)[C@@H]4CN3C(=O)N4OS(=O)(=O)O)o2)N1 [Example 55, (1R,4S)-4-(5-((S)-2-iminoimidazolidin-4-yl)-1,3,4-oxadiazol-2-yl)-6-oxo-5,7-diazaspiro [bicyclo[3.2.1]octane-2,1′-cyclopropan]-7-yl sulfate]	A (A: <8 μg/mL)	A (A: <8 μg/mL)	A (A: <8 μg/mL)	A (A: <8 μg/mL)	A (A: <8 μg/mL)	A (A: <8 μg/mL)	A (A: <8 μg/mL)	A (A: <8 μg/mL)	A (A: <8 μg/mL)	C (C: 16-128 μg/mL)	A (A: <8 μg/mL)	A (A: <8 μg/mL)	A (A: <8 μg/mL)	B (B: 8-16 μg/mL)	A (A: <8 μg/mL)	A (A: <8 μg/mL)
NCCNC[C@H](O)c1nnc([C@@H]2CC3(CC3)[C@@H]3CN2C(=O)N3OS(=O)(=O)O)o1 [Example 31, (1R,4S)-4-(5-((S)-2-((2-aminoethyl)amino)-1-hydroxyethyl)-1,3,4-oxadiazol-2-yl)-6-oxo-5,7-diazaspiro[bicyclo[3.2.1]octane-2,1′-cyclopropan]-7-yl sulfate]	A (A: <8 μg/mL)	B (B: 8-16 μg/mL)	A (A: <8 μg/mL)	A (A: <8 μg/mL)	A (A: <8 μg/mL)	B (B: 8-16 μg/mL)	A (A: <8 μg/mL)	A (A: <8 μg/mL)	A (A: <8 μg/mL)	C (C: 16-128 μg/mL)	A (A: <8 μg/mL)	A (A: <8 μg/mL)	A (A: <8 μg/mL)	C (C: 16-128 μg/mL)	A (A: <8 μg/mL)	B (B: 8-16 μg/mL)
NCC(O)c1nnc([C@@H]2CC3(CC3)[C@@H]3CN2C(=O)N3OS(=O)(=O)O)o1 (stereo partly drawn) [Example 9, (1R,4S)-4-(5-(2-amino-1-hydroxyethyl)-1,3,4-oxadiazol-2-yl)-6-oxo-5,7-diazaspiro [bicyclo[3.2.1]octane-2,1′-cyclopropan]-7-yl sulfate]	A (A: <8 μg/mL)	A (A: <8 μg/mL)	A (A: <8 μg/mL)	A (A: <8 μg/mL)	A (A: <8 μg/mL)	A (A: <8 μg/mL)	A (A: <8 μg/mL)	A (A: <8 μg/mL)	A (A: <8 μg/mL)	C (C: 16-128 μg/mL)	A (A: <8 μg/mL)	A (A: <8 μg/mL)	A (A: <8 μg/mL)	B (B: 8-16 μg/mL)	A (A: <8 μg/mL)	A (A: <8 μg/mL)
N=C(N)NCC(O)c1cc([C@@H]2CC3(CC3)[C@@H]3CN2C(=O)N3OS(=O)(=O)O)no1 (stereo partly drawn) [Example 38, (1R,4S)-4-(5-(2-guanidyl-1-hydroxyethyl)isoxazol-3-yl)-6-oxo-5,7-diazaspiro[bicycle [3.2.1]octane-2,1′-cyclopropan]-7-yl sulfate]	A (A: <8 μg/mL)	C (C: 16-128 μg/mL)	A (A: <8 μg/mL)	A (A: <8 μg/mL)	A (A: <8 μg/mL)	A (A: <8 μg/mL)	A (A: <8 μg/mL)	A (A: <8 μg/mL)	A (A: <8 μg/mL)	C (C: 16-128 μg/mL)	A (A: <8 μg/mL)	A (A: <8 μg/mL)	A (A: <8 μg/mL)	B (B: 8-16 μg/mL)	A (A: <8 μg/mL)	A (A: <8 μg/mL)
